The text below walks through data of patent US8673913B2, “SHP-2 phosphatase inhibitor” (Case Western Reserve University, priority 2009, dated 2014).

As usually defined, the IC50 is the concentration needed to halve the response being measured. As usually defined, the inhibition is how much of the control response was suppressed.

Data set [1] has as its target T1, GST-SHP-1 (Homo sapiens, UniProt P29350).
T1 construct: purchased Biomol International, L.P. (Plymouth Meeting, Pa.)
As to the kind of experiment: in vitro phosphatase assay, SHP-1. The note with it: for functional specificity SHP-2 vs. SHP-1: phosphatase assays at the indicated concentrations. The class given is biochemical. The source says: (§1) Candidate compounds were screened using the in vitro protein tyrosine phosphatase (PTP) assay kit (Sigma, St. Lois, Mo.). SHP-2 PTP domain GST fusion protein purified in house was used as the enzyme and a phospho-peptide corresponding to the surrounding sequence of pTyr^1146 in the insulin receptor (Thr-Arg-Asp-Ile-Tyr[PO3H2]-Glu-Thr-Asp-Tyr-Tyr) were used as the substrate. The assay determines free phosphate generated by dephosphorylation of the PTP substrate using the Malachite Green reagent. Briefly, 0.5 μg of GST-SHP-2 PTP was incubated in 40 μL assay buffer (25 mM Tris-HCl, PH7.4, 50 mM NaCl, 5 mM DTT, and 2.5 mM EDTA) with test compounds at various concentrations or DMSO at room temperature for 30 min. The PTP substrate was then added to a final concentration of 0.2 mM. The system was incubated at 30° C. for 30 min. Finally, 50 μl of Malachite Green solution was added and OD620 was measured after 5 min. In the phosphatase assays for SHP-1, CD45, TC-PTP, PTP-MEG2 (PTPN9), and LAR (PTPRF), procedures were similar, with the exception that GST-SHP-1, GST-CD45 cytoplasmic domain, GST-TC-PTP, GST-PTP-MEG2 PTP domain, and GST-LAR PTP domain purchased from Biomol International, L.P. (Plymouth Meeting, Pa.) were used instead as the enzymes.

The test system of data set [2] is Ba/F3 cells. As to the kind of experiment: Ba/F3 cell proliferation assay (IL-3, MTS). The format is cell-based, murine. The procedure:
To test the effects of the active compounds on IL-3-induced cellular response, Ba/F3, an IL-3 dependent murine pro-B lymphoma cell line, was used for the assay. Ba/F3 cells were seeded into 96-well plates (2×10^4 cells/well) in the RPMI-1640 medium supplemented with 10% fetal bovine serum (FBS), recombinant mouse IL-3 (1 ng/mL), and test compounds ([…]). Three days later, cell number was determined using the MTS cell proliferation kit (Promega Life Science, Madison, Wis.).
To test the effects of the active compounds on SHP-2-mediated cellular proliferation, Ba/F3, an IL-3 dependent hematopoietic cell line, mouse embryonic fibroblasts (MEFs), and H661 lung cancer cell line with SHP-2 activating mutation N58S were used for the assays. Cells were seeded into 96-well plates (2×10^4 cells/well) in the RPMI-1640 (for Ba/F3 cells) or DMEM (for MEFs and H661 cells) medium supplemented with 10% fetal bovine serum (FBS) and test compounds at various concentrations. For the Ba/F3 cell assay, recombinant mouse IL-3 (1 ng/mL) was included in the culture medium. Two days later, cell number was determined using the MTS cell proliferation kit (Promega Life Science, Madison, Wis.).

In data set [3] the target is T2, GST-TC-PTP (Homo sapiens, UniProt P17706).
T2 construct: purchased Biomol International, L.P. (Plymouth Meeting, Pa.)
T2 sequence (P17706 1-415): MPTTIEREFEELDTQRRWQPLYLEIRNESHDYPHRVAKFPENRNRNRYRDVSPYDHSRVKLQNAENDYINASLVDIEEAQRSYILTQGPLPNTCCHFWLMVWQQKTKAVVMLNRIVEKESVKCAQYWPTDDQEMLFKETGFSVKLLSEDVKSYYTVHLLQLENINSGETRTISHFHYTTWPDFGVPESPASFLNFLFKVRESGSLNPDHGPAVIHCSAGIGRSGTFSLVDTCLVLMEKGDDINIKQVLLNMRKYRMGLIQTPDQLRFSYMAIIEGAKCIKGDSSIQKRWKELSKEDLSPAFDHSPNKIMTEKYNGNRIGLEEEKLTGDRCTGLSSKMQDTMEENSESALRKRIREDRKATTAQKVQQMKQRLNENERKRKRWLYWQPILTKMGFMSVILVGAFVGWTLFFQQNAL
As to the kind of experiment: in vitro phosphatase assay, TC-PTP. The class given is biochemical. The settings on record: for inhibition of TC-PTP: FIG. 4. As for the experimental part:
as §1, with “SHP-2 PTP domain GST fusion protein purified in house was used as the enzyme and a phospho-peptide corresponding to the surrounding sequence of pTyr^1146 in the insulin receptor (Thr-Arg-Asp-Ile-Tyr[PO3H2]-Glu-Thr-Asp-Tyr-Tyr) were used as the substrate.” left out

Data set [4] deals with T3, SHP-2 PTP domain GST fusion protein (Homo sapiens, UniProt Q06124).
T3 sequence (Q06124 247-517 limits assumed): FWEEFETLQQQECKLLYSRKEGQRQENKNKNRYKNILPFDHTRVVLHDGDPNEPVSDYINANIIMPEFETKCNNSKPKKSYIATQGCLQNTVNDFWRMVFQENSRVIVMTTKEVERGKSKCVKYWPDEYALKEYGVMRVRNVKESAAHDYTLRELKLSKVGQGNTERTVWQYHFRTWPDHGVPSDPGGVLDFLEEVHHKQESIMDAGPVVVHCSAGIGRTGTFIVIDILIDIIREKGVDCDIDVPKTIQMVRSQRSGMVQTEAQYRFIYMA
Kind of data set: in vitro protein tyrosine phosphatase assay, SHP-2 (Malachite Green). The format is biochemical. Further details: SHP-2 PTP domain GST fusion protein purified in house was used as the enzyme; made in house. The settings on record: for inhibition at 100 µM: compound at 100 μM, read-out: inhibition of SHP-2 enzymatic activity.
Source text: as §1
Candidate compounds identified by CADD were screened by the in vitro tyrosine phosphatase assay as described in the Experimental Section. The GST-SHP-2 PTP domain fusion protein was incubated with the compounds at room temperature for 30 min before the phospho-peptide substrate was added to the assay systems, allowing compounds to bind to target sites in SHP-2. Each test compound was dissolved in DMSO. Initial concentration of the test compounds was 100 μM. In the experimental assay, DMSO was included as the negative control and sodium orthovanadate (100 μM), a general non-specific tyrosine phosphatase inhibitor, was used as the positive control. From the 165 commercially available compounds tested, we identified 9 compounds that inhibit SHP-2 catalytic activity with various efficiencies (FIG. 3A). […] The inhibitory effects of the compounds were dose-dependent.

T1 sequence (P29350 whole entry): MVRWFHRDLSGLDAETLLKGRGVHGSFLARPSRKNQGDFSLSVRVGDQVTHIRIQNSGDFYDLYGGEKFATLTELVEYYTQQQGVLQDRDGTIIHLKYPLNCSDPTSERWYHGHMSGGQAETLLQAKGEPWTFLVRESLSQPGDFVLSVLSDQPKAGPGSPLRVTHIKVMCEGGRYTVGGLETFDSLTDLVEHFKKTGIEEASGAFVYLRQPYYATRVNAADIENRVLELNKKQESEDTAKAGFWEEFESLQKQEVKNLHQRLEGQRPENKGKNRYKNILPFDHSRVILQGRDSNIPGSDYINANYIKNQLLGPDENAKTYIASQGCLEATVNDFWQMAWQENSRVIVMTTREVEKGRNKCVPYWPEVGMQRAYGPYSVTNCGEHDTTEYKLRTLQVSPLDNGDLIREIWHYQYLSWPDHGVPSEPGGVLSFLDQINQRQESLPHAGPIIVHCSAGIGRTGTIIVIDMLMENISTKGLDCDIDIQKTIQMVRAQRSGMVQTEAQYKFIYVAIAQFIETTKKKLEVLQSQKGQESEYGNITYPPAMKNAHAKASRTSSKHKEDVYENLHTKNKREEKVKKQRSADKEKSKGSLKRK

Take `Cc1cc(C)c2[nH]c3nc(SCC(=O)Nc4cccc5ccccc45)nnc3c2c1` [#324]: the “functional specificity SHP-2 vs. SHP-1” value in data set [1] is “high functional specificity for SHP-2 over SHP-1”. In addition, the figures for the 50% inhibitory concentration (IC50) in data set [1] (read-out: IC50 SHP1), in data set [3] and in data set [4] (read-out: IC50 SHP2) were 37.7 µM, 39.9 µM and 13.9 µM, respectively. In addition, in data set [2] (IL-3 1 ng/mL, 48 hours), the “SHP-2 mediated proliferative response to IL-3” value is recorded as “inhibit”. Moreover, the “selectivity for SHP-2 compared to other PTPases” value in data set [4] (Table 1 and FIG. 10) is on record as “selectively inhibits SHP-2 compared to other PTPases”.
For the compound `NS(=O)(=O)c1ccc(CCNC(=O)c2ccc(Cn3c(=S)[nH]c4ccc(Br)cc4c3=O)cc2)cc1` [#216], in data set [1], the “functional specificity SHP-2 vs. SHP-1” value is given as “selectively inhibited SHP-2 vs. SHP-1”. Also, the IL-3-stimulated cell growth entry in data set [2] (100 or 200 μM, IL-3 1 ng/mL, 72 hours) was “greatly decreased”. Further, the “inhibition of TC-PTP” value in data set [3] is “slight inhibition”. In data set [4], the inhibition at 100 µM was 55%.
For `Cc1cc(C)c2c(c1)[nH]c1nnc(SCC(=O)NCc3cccs3)nc12` [#220], in data set [1], the “functional specificity SHP-2 vs. SHP-1” value is on record as “selectively inhibited SHP-2 vs. SHP-1”. Moreover, in data set [2], the acute cytotoxicity result was “modest acute cytotoxicity”. Further, the “inhibition of TC-PTP” value in data set [3] is given as “slight inhibition”. Besides, the inhibition at 100 µM in data set [4] worked out at 50%.
